Read-outs that look alike come from different tables or passages of the source.
Experiments:
Test in all cases: Test C pre-/postemergence greenhouse herbicide test
Format in all cases: in vivo
[1] = tested on: lambsquarters (Chenopodium album)
In short: (§1)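 Greenhouse pre- and postemergence screen: compounds in a non-phytotoxic solvent mix plus surfactant were applied to soil/sand-sown seeds or to 1- to 4-leaf plants. Visual rating 13–15 d later, 0 (no effect) to 100 (complete control).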

[2] = tested on: nutsedge, yellow (yellow nutsedge, Cyperus esculentus); settings: Cyperus, Nutsedge, Yellow, read-out: Plant response rating; for pest or weed control at 31 g/ha: 31 g ai/ha; for pest or weed control at 62 g/ha: 62 g ai/ha; for pest or weed control at 125 g/ha: 125 g ai/ha; for pest or weed control at 250 g/ha: 250 g ai/ha
In short: as §1

[3] = tested on: ryegrass, Italian (Italian ryegrass, Lolium multiflorum); settings: Lolium multiflorum, Ryegrass, Italian, read-out: Plant response rating; for pest or weed control at 31 g/ha: 31 g ai/ha; for pest or weed control at 62 g/ha: 62 g ai/ha; for pest or weed control at 125 g/ha: 125 g ai/ha; for pest or weed control at 250 g/ha: 250 g ai/ha
In short: as §1

[4] = tested on: ragweed (common ragweed, Ambrosia elatior); settings: Ambrosia artemisiifolia, Ragweed, read-out: Plant response rating; for pest or weed control at 31 g/ha: 31 g ai/ha; for pest or weed control at 62 g/ha: 62 g ai/ha; for pest or weed control at 125 g/ha: 125 g ai/ha; for pest or weed control at 250 g/ha: 250 g ai/ha
In short: as §1

[5] = tested on: velvetleaf (Abutilon theophrasti); settings: Abutilon theophrasti, Velvetleaf, read-out: Plant response rating; for pest or weed control at 62 g/ha: 62 g ai/ha; for pest or weed control at 125 g/ha: 125 g ai/ha; for pest or weed control at 250 g/ha: 250 g ai/ha
In short: as §1

[6] = tested on: morningglory (Ipomoea coccinea); settings: Morningglory
In short: as §1

[7] = tested on: galium (catchweed bedstraw, Galium aparine); settings: Galium, read-out: Plant response rating; for pest or weed control at 31 g/ha: 31 g ai/ha; for pest or weed control at 62 g/ha: 62 g ai/ha; for pest or weed control at 125 g/ha: 125 g ai/ha; for pest or weed control at 250 g/ha: 250 g ai/ha
In short: as §1

[8] = tested on: kochia (Kochia scoparia); settings: Postemergence
In short: as §1

[9] = tested on: waterhemp (common waterhemp, Amaranthus rudis); settings: Waterhemp
In short: as §1

[10] = tested on: pigweed (Amaranthus retroflexus); settings: Amaranthus retroflexus, Pigweed, read-out: Plant response rating; for pest or weed control at 31 g/ha: 31 g ai/ha; for pest or weed control at 62 g/ha: 62 g ai/ha; for pest or weed control at 125 g/ha: 125 g ai/ha; for pest or weed control at 250 g/ha: 250 g ai/ha
In short: as §1

[11] = tested on: oat, wild (wild oat, Avena fatua); settings: Postemergence
In short: as §1

[12] = tested on: oilseed rape (Brassica napus); settings: Oilseed Rape
In short: as §1

[13] = tested on: foxtail, giant (giant foxtail, Setaria faberii); settings: Setaria faberi, Foxtail, Giant, read-out: Plant response rating; for pest or weed control at 31 g/ha: 31 g ai/ha; for pest or weed control at 62 g/ha: 62 g ai/ha; for pest or weed control at 125 g/ha: 125 g ai/ha; for pest or weed control at 250 g/ha: 250 g ai/ha
In short: as §1

COc1cc(=O)n(-c2ccc(C(F)(F)F)cc2)nc1Cc1ccnc(C(F)(F)F)c1 [Compound 16, 5-methoxy-2-[4-(trifluoromethyl)phenyl]-6-[[2-(trifluoromethyl)-4-pyridinyl]methyl]-3(2H)-pyridazinone]
Plant response rating ([1]; Postemergence, 31 g ai/ha): 70
Plant response rating ([1]; Postemergence, 62 g ai/ha): 95
Plant response rating ([1]; Postemergence, 125 g ai/ha): 95
Plant response rating ([1]; Postemergence, 250 g ai/ha): 95
Plant response rating ([1]; Preemergence, 31 g ai/ha): 100
Plant response rating ([1]; Preemergence, 62 g ai/ha): 100
Plant response rating ([1]; Preemergence, 125 g ai/ha): 100
Plant response rating ([1]; Preemergence, 250 g ai/ha): 100
pest or weed control at 31 g/ha ([2]; post-emergence, Postemergence): 5%
pest or weed control at 62 g/ha ([2]; post-emergence, Postemergence): 5%
pest or weed control at 125 g/ha ([2]; post-emergence, Postemergence): 5%
pest or weed control at 250 g/ha ([2]; post-emergence, Postemergence): 20%
pest or weed control at 31 g/ha ([2]; pre-emergence, Preemergence): 5%
pest or weed control at 62 g/ha ([2]; pre-emergence, Preemergence): 10%
pest or weed control at 125 g/ha ([2]; pre-emergence, Preemergence): 30%
pest or weed control at 250 g/ha ([2]; pre-emergence, Preemergence): 55%
pest or weed control at 31 g/ha ([3]; post-emergence, Postemergence): 5%
pest or weed control at 62 g/ha ([3]; post-emergence, Postemergence): 5%
pest or weed control at 125 g/ha ([3]; post-emergence, Postemergence): 15%
pest or weed control at 250 g/ha ([3]; post-emergence, Postemergence): 35%
pest or weed control at 31 g/ha ([3]; pre-emergence, Preemergence): 5%
pest or weed control at 62 g/ha ([3]; pre-emergence, Preemergence): 30%
pest or weed control at 125 g/ha ([3]; pre-emergence, Preemergence): 85%
pest or weed control at 250 g/ha ([3]; pre-emergence, Preemergence): 90%
pest or weed control at 31 g/ha ([4]; post-emergence, Postemergence): 15%
pest or weed control at 62 g/ha ([4]; post-emergence, Postemergence): 25%
pest or weed control at 125 g/ha ([4]; post-emergence, Postemergence): 60%
pest or weed control at 250 g/ha ([4]; post-emergence, Postemergence): 60%
pest or weed control at 31 g/ha ([4]; pre-emergence, Preemergence): 20%
pest or weed control at 62 g/ha ([4]; pre-emergence, Preemergence): 65%
pest or weed control at 125 g/ha ([4]; pre-emergence, Preemergence): 65%
pest or weed control at 250 g/ha ([4]; pre-emergence, Preemergence): 100%
pest or weed control at 31 g/ha ([5]; post-emergence, Postemergence, 31 g ai/ha): 25%
pest or weed control at 62 g/ha ([5]; post-emergence, Postemergence): 50%
pest or weed control at 125 g/ha ([5]; post-emergence, Postemergence): 60%
pest or weed control at 250 g/ha ([5]; post-emergence, Postemergence): 75%
pest or weed control at 62 g/ha ([5]; pre-emergence, Preemergence): 80%
pest or weed control at 125 g/ha ([5]; pre-emergence, Preemergence): 100%
pest or weed control at 250 g/ha ([5]; pre-emergence, Preemergence): 100%
Plant response rating ([6]; Postemergence, 31 g ai/ha): 50
Plant response rating ([6]; Postemergence, 62 g ai/ha): 70
Plant response rating ([6]; Postemergence, 125 g ai/ha): 98
Plant response rating ([6]; Postemergence, 250 g ai/ha): 98
Plant response rating ([6]; Preemergence, 31 g ai/ha): 45
Plant response rating ([6]; Preemergence, 62 g ai/ha): 95
Plant response rating ([6]; Preemergence, 125 g ai/ha): 100
Plant response rating ([6]; Preemergence, 250 g ai/ha): 100
pest or weed control at 31 g/ha ([7]; post-emergence, Postemergence): 80%
pest or weed control at 62 g/ha ([7]; post-emergence, Postemergence): 80%
pest or weed control at 125 g/ha ([7]; post-emergence, Postemergence): 90%
pest or weed control at 250 g/ha ([7]; post-emergence, Postemergence): 90%
pest or weed control at 31 g/ha ([7]; pre-emergence, Preemergence): 70%
pest or weed control at 62 g/ha ([7]; pre-emergence, Preemergence): 98%
pest or weed control at 125 g/ha ([7]; pre-emergence, Preemergence): 100%
pest or weed control at 250 g/ha ([7]; pre-emergence, Preemergence): 100%
Plant response rating ([8]; 31 g ai/ha): 90
Plant response rating ([8]; 62 g ai/ha): 90
Plant response rating ([8]; 125 g ai/ha): 90
Plant response rating ([8]; 250 g ai/ha): 90
Plant response rating ([9]; Postemergence, 31 g ai/ha): 80
Plant response rating ([9]; Postemergence, 62 g ai/ha): 90
Plant response rating ([9]; Postemergence, 125 g ai/ha): 95
Plant response rating ([9]; Postemergence, 250 g ai/ha): 98
Plant response rating ([9]; Preemergence, 62 g ai/ha): 100
Plant response rating ([9]; Preemergence, 125 g ai/ha): 100
Plant response rating ([9]; Preemergence, 250 g ai/ha): 100
pest or weed control at 31 g/ha ([10]; post-emergence, Postemergence): 55%
pest or weed control at 62 g/ha ([10]; post-emergence, Postemergence): 90%
pest or weed control at 125 g/ha ([10]; post-emergence, Postemergence): 95%
pest or weed control at 250 g/ha ([10]; post-emergence, Postemergence): 95%
pest or weed control at 31 g/ha ([10]; pre-emergence, Preemergence): 100%
pest or weed control at 62 g/ha ([10]; pre-emergence, Preemergence): 100%
pest or weed control at 125 g/ha ([10]; pre-emergence, Preemergence): 100%
pest or weed control at 250 g/ha ([10]; pre-emergence, Preemergence): 100%
Plant response rating ([11]; 31 g ai/ha): 15
Plant response rating ([11]; 62 g ai/ha): 30
Plant response rating ([11]; 125 g ai/ha): 40
Plant response rating ([11]; 250 g ai/ha): 60
Plant response rating ([12]; Postemergence, 31 g ai/ha): 60
Plant response rating ([12]; Postemergence, 62 g ai/ha): 60
Plant response rating ([12]; Postemergence, 125 g ai/ha): 80
Plant response rating ([12]; Preemergence, 31 g ai/ha): 65
Plant response rating ([12]; Preemergence, 62 g ai/ha): 100
Plant response rating ([12]; Preemergence, 125 g ai/ha): 100
Plant response rating ([12]; Preemergence, 250 g ai/ha): 100
pest or weed control at 31 g/ha ([13]; post-emergence, Postemergence): 15%
pest or weed control at 62 g/ha ([13]; post-emergence, Postemergence): 15%
pest or weed control at 125 g/ha ([13]; post-emergence, Postemergence): 30%
pest or weed control at 250 g/ha ([13]; post-emergence, Postemergence): 55%
pest or weed control at 31 g/ha ([13]; pre-emergence, Preemergence): 98%
pest or weed control at 62 g/ha ([13]; pre-emergence, Preemergence): 98%
pest or weed control at 125 g/ha ([13]; pre-emergence, Preemergence): 100%
pest or weed control at 250 g/ha ([13]; pre-emergence, Preemergence): 100%

Source: patent US10202361B2, “Pyridazinones as herbicides” (E I DU PONT DE NEMOURS AND COMPANY, priority 2014, dated 2019)
